Legend:
[1] = test system: IL-4 induced STAT6 phosphorylation in THP-1 human monocytic cells; conditions: THP-1 cells
[2] = test system: IL-13 induced STAT6 phosphorylation in BEAS-2B human lung epithelial cells; conditions: BEAS-2B cells
[3] = test system: oxazolone-induced colitis; assay: Mouse model of oxazolone-induced colitis; format: in vivo, BALB/C mice; conditions: mice, PO, 1, 3, and/or 10 mg/kg BID (doses up to 10 mg/kg BID)
Experimental: Assay 7: Mouse Model of Oxazalone-Induced Colitis
Oxazolone-induced colitis is an experimental model that has a histological resemblance to human ulcerative colitis (Heller et al. Immunology, 2002, 17, 629-638). Adult BALB/C mice from Harlan were used in the assay. On day 1, animals were lightly anesthetized with isoflurane and the hairs between the shoulder were carefully removed before oxazolone (4%, 150 μL, 4:1 acetone:olive oil formulation) or vehicle solution was slowly applied for skin sensitization. Seven days after skin sensitization, the mice were fasted overnight, anesthetized with isoflurane inhalation, and a 1 mL syringe equipped with a 3.5-F catheter, filled with oxazolone solution, was inserted carefully about 4 cm into the colon of the mouse. Following insertion, 50 μL of the oxazolone solution (1%, 1:1 ethanol:water formulation) was injected very slowly (over 30 sec using an injection pump) into the colon. The catheter was removed and the mice were held vertically (head down) for 2 min to ensure that the entire oxazolone solution remained inside the colon. Drug treatment (PO, BID or TID) or vehicle was initiated a day prior to the oxazolone intrarectal (IR) challenge. Two-day post oxazolone intrarectal challenge, the Disease Activity Index (DAI) was assessed by treatment-blinded experimenters for each mouse according to the criteria score: stool consistency score (0, normal; 2, loose; 4, diarrhea), gross bleeding score (0, absence; 2, blood tinged; 4, presence), and weight loss score (0, none; 1, 1%-5%; 2, 5%-10%; 3, 10%-20%; 4, more than 20%); DAI=average of (stool consistency score+gross bleeding score+weight loss score).
Selected compounds of the invention were tested in the assay. Efficacy in the model is evidenced by a decrease in DAI score as compared with the score from vehicle treated animals.

TYK2 = TYK2 (Homo sapiens (Human), UniProt P29597); format: biochemical
Sequence of TYK2 (P29597 whole entry): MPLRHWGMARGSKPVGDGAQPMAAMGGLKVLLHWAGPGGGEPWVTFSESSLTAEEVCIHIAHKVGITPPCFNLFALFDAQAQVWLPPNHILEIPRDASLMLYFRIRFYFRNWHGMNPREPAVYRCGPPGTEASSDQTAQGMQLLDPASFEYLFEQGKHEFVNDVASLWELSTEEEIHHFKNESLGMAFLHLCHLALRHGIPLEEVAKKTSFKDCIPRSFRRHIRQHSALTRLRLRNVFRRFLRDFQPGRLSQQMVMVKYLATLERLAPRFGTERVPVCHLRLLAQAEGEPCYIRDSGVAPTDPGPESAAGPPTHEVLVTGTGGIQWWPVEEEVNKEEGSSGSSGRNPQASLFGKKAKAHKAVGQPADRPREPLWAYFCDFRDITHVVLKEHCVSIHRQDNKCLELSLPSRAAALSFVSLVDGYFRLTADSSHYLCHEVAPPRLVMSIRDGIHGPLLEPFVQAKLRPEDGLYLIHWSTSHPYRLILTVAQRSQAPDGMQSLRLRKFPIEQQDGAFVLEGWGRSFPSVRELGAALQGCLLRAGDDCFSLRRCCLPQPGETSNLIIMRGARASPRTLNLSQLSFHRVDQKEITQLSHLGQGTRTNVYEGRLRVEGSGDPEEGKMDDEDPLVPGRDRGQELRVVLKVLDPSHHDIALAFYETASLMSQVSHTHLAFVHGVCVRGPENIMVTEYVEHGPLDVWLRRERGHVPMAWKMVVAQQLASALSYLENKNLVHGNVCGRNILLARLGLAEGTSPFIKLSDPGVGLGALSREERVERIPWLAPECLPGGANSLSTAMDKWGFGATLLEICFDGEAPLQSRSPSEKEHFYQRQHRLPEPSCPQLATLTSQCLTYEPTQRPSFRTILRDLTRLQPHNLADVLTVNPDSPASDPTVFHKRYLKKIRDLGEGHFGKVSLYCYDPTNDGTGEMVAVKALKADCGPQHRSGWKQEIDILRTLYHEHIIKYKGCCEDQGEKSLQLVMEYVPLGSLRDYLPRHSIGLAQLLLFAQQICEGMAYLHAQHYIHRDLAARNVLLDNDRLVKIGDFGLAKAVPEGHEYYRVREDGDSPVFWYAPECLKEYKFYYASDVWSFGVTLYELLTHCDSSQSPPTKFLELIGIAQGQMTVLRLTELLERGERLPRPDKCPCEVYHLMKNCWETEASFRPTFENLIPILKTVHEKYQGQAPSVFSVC
Experimental: (§1) Assay 1: Biochemical JAK and Off-Target Kinase Assays
(§2) A panel of four LanthaScreen JAK biochemical assays (JAK1, 2, 3 and Tyk2) were carried in a common kinase reaction buffer (50 mM HEPES, pH 7.5, 0.01% Brij-35, 10 mM MgCl2, and 1 mM EGTA). Recombinant GST-tagged JAK enzymes and a GFP-tagged STAT1 peptide substrate were obtained from Life Technologies.
(§3) Serially diluted compounds were pre-incubated with each of the four JAK enzymes and the substrate in white 384-well microplates (Corning) at ambient temperature for 1 h. ATP was subsequently added to initiate the kinase reactions in 10 μL total volume, with 1% DMSO. […] Kinase reactions were allowed to proceed for 1 hour at ambient temperature before a 10 μL preparation of EDTA (10 mM final concentration) and Tb-anti-pSTAT1 (pTyr701) antibody (Life Technologies, 2 nM final concentration) in TR-FRET dilution buffer (Life Technologies) was added. The plates were allowed to incubate at ambient temperature for 1 h before being read on the EnVision reader (Perkin Elmer).
(§4) Results were expressed as pIC50 (negative logarithm of IC50) and subsequently converted to pKi (negative logarithm of dissociation constant, Ki) using the Cheng-Prusoff equation.

JAK1 = JAK1 (Homo sapiens (Human), UniProt P23458); format: biochemical
Sequence of JAK1 (P23458 whole entry): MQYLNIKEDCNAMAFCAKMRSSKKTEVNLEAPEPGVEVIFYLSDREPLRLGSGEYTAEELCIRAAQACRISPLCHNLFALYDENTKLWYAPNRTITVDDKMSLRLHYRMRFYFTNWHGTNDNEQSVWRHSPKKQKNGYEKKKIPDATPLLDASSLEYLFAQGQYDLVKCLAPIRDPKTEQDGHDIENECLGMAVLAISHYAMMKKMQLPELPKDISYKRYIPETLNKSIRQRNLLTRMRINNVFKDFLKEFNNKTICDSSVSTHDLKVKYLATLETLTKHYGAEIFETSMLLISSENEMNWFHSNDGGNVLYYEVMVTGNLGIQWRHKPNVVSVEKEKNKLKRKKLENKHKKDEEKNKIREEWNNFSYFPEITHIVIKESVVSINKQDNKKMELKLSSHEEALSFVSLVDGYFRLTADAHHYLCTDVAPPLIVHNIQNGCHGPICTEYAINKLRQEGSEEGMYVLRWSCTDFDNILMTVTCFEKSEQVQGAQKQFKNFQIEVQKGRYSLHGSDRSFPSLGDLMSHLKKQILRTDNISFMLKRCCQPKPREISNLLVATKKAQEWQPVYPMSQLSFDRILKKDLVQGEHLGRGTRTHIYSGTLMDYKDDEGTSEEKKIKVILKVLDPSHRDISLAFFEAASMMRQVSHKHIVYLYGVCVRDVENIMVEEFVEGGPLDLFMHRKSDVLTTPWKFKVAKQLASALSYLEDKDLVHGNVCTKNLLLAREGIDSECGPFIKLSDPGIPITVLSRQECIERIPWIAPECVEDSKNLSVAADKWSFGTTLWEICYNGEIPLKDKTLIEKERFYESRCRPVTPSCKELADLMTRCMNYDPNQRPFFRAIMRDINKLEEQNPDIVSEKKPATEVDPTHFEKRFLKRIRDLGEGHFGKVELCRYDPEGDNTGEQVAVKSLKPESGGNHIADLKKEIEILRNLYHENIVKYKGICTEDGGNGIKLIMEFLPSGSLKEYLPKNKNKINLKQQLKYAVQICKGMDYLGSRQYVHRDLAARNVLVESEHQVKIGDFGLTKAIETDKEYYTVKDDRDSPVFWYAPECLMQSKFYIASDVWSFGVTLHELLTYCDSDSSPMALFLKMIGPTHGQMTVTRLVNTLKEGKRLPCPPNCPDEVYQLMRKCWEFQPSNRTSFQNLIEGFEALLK
Experimental: as §1, §2, §3, §4

JAK3 = JAK3 (Homo sapiens (Human), UniProt P52333); assay: Biochemical JAK assay (LanthaScreen), JAK3
Sequence of JAK3 (P52333 whole entry): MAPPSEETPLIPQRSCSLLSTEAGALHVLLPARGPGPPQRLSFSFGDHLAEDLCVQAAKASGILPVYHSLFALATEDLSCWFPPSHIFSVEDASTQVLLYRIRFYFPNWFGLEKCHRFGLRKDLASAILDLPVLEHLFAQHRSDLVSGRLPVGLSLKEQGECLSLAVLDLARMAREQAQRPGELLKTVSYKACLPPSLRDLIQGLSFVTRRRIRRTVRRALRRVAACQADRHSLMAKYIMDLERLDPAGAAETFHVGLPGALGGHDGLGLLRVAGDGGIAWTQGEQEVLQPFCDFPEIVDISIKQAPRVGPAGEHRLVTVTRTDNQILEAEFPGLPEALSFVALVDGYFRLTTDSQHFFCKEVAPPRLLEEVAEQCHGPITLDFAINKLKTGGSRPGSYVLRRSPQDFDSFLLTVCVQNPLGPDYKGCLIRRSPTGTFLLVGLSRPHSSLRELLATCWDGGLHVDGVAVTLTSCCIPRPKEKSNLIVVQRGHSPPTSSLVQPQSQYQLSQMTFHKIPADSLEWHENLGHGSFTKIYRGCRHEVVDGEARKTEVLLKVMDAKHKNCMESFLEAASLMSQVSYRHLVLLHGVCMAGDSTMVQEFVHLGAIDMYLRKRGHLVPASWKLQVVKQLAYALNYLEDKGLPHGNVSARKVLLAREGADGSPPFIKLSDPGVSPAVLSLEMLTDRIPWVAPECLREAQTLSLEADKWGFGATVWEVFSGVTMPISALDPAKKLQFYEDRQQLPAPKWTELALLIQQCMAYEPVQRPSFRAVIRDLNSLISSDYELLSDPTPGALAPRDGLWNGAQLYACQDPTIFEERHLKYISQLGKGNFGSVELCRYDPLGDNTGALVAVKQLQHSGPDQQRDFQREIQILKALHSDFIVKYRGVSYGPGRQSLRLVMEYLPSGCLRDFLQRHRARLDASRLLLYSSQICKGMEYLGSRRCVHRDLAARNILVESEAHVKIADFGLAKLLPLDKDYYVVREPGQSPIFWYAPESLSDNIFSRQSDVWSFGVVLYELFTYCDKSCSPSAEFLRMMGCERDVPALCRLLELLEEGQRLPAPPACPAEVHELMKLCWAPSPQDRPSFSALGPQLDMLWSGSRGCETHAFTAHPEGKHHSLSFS
Experimental: as §1, §2
Serially diluted compounds were pre-incubated with each of the four JAK enzymes and the substrate in white 384-well microplates (Corning) at ambient temperature for 1 h. ATP was subsequently added to initiate the kinase reactions in 10 μL total volume, with 1% DMSO. […] The plates were allowed to incubate at ambient temperature for 1 h before being read on the EnVision reader (Perkin Elmer).
as §4

Structure (SMILES) | THP-1 IL4 pIC50 [1] | BEAS2B pIC50 [2] | decrease in DAI score as compared with vehicle treated animals [3] | Tyk 2 (pKi) (TYK2) | JAK 1 (pKi) (JAK1) | JAK 3 (pKi) (JAK3)
COCCS(=O)(=O)N1[C@@H]2CCC[C@H]1C[C@H](Nc1nc(Nc3cc(C)[nH]n3)cc3ncccc13)C2 [Example 4-19] | A (A represents a pEC50 value ≥7.5 (EC50≤32 nM)) | A (A represents a pEC50 value ≥7.5 (EC50≤32 nM)) | did not exhibit a statistically significant decrease | – | – | –
Cc1cc(Nc2cc3nc(CO)ccc3c(N[C@@H]3C[C@H]4CC[C@@H](C3)N4CCC#N)n2)n[nH]1 [Example 5-11] | A (A represents a pEC50 value ≥7.5 (EC50≤32 nM)) | – | did not exhibit a statistically significant decrease | – | – | –
CCOCC(=O)N1[C@@H]2CCC[C@H]1C[C@H](Nc1nc(Nc3cc(C)[nH]n3)cc3ncccc13)C2 [Example 2-17] | – | A (A represents a pEC50 value ≥7.5 (EC50≤32 nM)) | did not exhibit a statistically significant decrease | – | – | –
Cc1cc(Nc2cc3ncccc3c(N[C@@H]3C[C@H]4CC[C@@H](C3)N4S(=O)(=O)CC(C)C)n2)n[nH]1 [Example 4-3] | A (A represents a pEC50 value ≥7.5 (EC50≤32 nM)) | A (A represents a pEC50 value ≥7.5 (EC50≤32 nM)) | did not exhibit a statistically significant decrease | – | – | –
Cc1cc(Nc2cc3ncccc3c(N[C@@H]3C[C@H]4CCC[C@@H](C3)N4C(=O)C(C)(C)CO)n2)n[nH]1 [Example 2-22] | – | A (A represents a pEC50 value ≥7.5 (EC50≤32 nM)) | did not exhibit a statistically significant decrease | – | – | –
Cc1cc(Nc2cc3ncccc3c(N[C@@H]3C[C@H]4CCC[C@@H](C3)N4S(=O)(=O)C3CC3)n2)n[nH]1 [Example 4-18] | A (A represents a pEC50 value ≥7.5 (EC50≤32 nM)) | A (A represents a pEC50 value ≥7.5 (EC50≤32 nM)) | did not exhibit a statistically significant decrease | – | – | –
COC(=O)c1cnc2cc(Nc3cc(C)[nH]n3)nc(N[C@@H]3C[C@H]4CCC[C@@H](C3)N4C3CCOC(=O)C3)c2c1 (some centres unmarked) [Example 6-48] | B (B represents a pEC50 value between 6.7 and 7.5 (EC50 between 200 nM and 32 nM)) | – | – | C (C represents a pKi value between 7 and 9 (Ki between 100 nM and 1 nM)) | B (B represents a pKi value between 9 and 10 (Ki between 1 nM and 0.1 nM)) | C (C represents a pKi value between 7 and 9 (Ki between 100 nM and 1 nM))
Cc1cc(Nc2cc3nc(CO)ccc3c(N[C@@H]3C[C@H]4CC[C@@H](C3)N4C(=O)OCC(C)C)n2)n[nH]1 [Example 12, Isobutyl (1R,3s,5S)-3-((2-(hydroxymethyl)-7-((5-methyl-1H-pyrazol-3-yl)amino)-1,6-naphthyridin-5-yl)amino)-8-azabicyclo[3.2.1]octane-8-carboxylate] | – | – | statistically significant decrease | – | – | –
CCC(C)C(=O)N1C2CCC1CC(Nc1nc(Nc3cc(C)[nH]n3)cc3ncccc13)C2 (centres unmarked) [Example 2-6] | – | A (A represents a pEC50 value ≥7.5 (EC50≤32 nM)) | did not exhibit a statistically significant decrease | – | – | –
Cc1cc(Nc2cc3ncccc3c(N[C@@H]3C[C@H]4CCC[C@@H](C3)N4C(=O)Cc3ccccc3)n2)n[nH]1 [Example 2-24] | A (A represents a pEC50 value ≥7.5 (EC50≤32 nM)) | A (A represents a pEC50 value ≥7.5 (EC50≤32 nM)) | did not exhibit a statistically significant decrease | – | – | –
Cc1cc(Nc2cc3ncccc3c(N[C@@H]3C[C@H]4CCC[C@@H](C3)N4S(=O)(=O)CC3CC3)n2)n[nH]1 [Example 4-23] | A (A represents a pEC50 value ≥7.5 (EC50≤32 nM)) | A (A represents a pEC50 value ≥7.5 (EC50≤32 nM)) | did not exhibit a statistically significant decrease | – | – | –
Cc1cc(Nc2cc3ncccc3c(N[C@@H]3C[C@H]4CCC[C@@H](C3)N4C(=O)C3(C(F)(F)F)CC3)n2)n[nH]1 [Example 2-19] | A (A represents a pEC50 value ≥7.5 (EC50≤32 nM)) | – | – | B (B represents a pKi value between 9 and 10 (Ki between 1 nM and 0.1 nM)) | B (B represents a pKi value between 9 and 10 (Ki between 1 nM and 0.1 nM)) | C (C represents a pKi value between 7 and 9 (Ki between 100 nM and 1 nM))
Cc1cc(Nc2cc3ncccc3c(N[C@@H]3C[C@H]4CC[C@@H](C3)N4S(=O)(=O)Cc3ccccc3)n2)n[nH]1 [Example 4-13] | – | A (A represents a pEC50 value ≥7.5 (EC50≤32 nM)) | did not exhibit a statistically significant decrease | – | – | –
COC(=O)c1cnc2cc(Nc3cc(C)[nH]n3)nc(N[C@@H]3C[C@H]4CC[C@@H](C3)N4CCCF)c2c1 [Example 6-44] | – | – | – | – | B (B represents a pKi value between 9 and 10 (Ki between 1 nM and 0.1 nM)) | –
CCS(=O)(=O)N1[C@@H]2CC[C@H]1C[C@H](Nc1nc(Nc3cc(C)[nH]n3)cc3ncccc13)C2 [Example 7, N^5-((1R,3s,5S)-8-(ethylsulfonyl)-8-azabicyclo[3.2.1]octan-3-yl)-N^7-(5-methyl-1H-pyrazol-3-yl)-1,6-naphthyridine-5,7-diamine] | – | – | did not exhibit a statistically significant decrease | – | – | –
Cc1cc(Nc2cc3ncccc3c(N[C@@H]3C[C@H]4CC[C@@H](C3)N4S(=O)(=O)N3CC(C#N)C3)n2)n[nH]1 [Example 13] | – | – | did not exhibit a statistically significant decrease | – | – | –
Cc1cc(Nc2cc3ncccc3c(N[C@@H]3C[C@H]4CC[C@@H](C3)N4CCF)n2)n[nH]1 [Example 2, N^5-((1R,3s,5S)-8-(2-fluoroethyl)-8-azabicyclo[3.2.1]octan-3-yl)-N^7-(5-methyl-1H-pyrazol-3-yl)-1,6-naphthyridine-5,7-diamine] | – | – | statistically significant decrease | – | – | –
CCC(=O)N1[C@@H]2CC[C@H]1C[C@H](Nc1nc(Nc3cc(C)[nH]n3)cc3ncccc13)C2 [Example 2-1] | – | – | did not exhibit a statistically significant decrease | – | – | –
Cc1cc(Nc2cc3ncccc3c(N[C@@H]3C[C@H]4CC[C@@H](C3)N4C(=O)C3(C(F)(F)F)CC3)n2)n[nH]1 [Example 2-7] | B (B represents a pEC50 value between 6.7 and 7.5 (EC50 between 200 nM and 32 nM)) | – | – | C (C represents a pKi value between 7 and 9 (Ki between 100 nM and 1 nM)) | B (B represents a pKi value between 9 and 10 (Ki between 1 nM and 0.1 nM)) | C (C represents a pKi value between 7 and 9 (Ki between 100 nM and 1 nM))
Cc1cc(Nc2cc3ncccc3c(N[C@@H]3C[C@H]4CC[C@@H](C3)N4S(=O)(=O)c3cccnc3)n2)n[nH]1 [Example 3, N^7-(5-methyl-1H-pyrazol-3-yl)-N^5-((1R,3s,5S)-8-(pyridin-3-ylsulfonyl)-8-azabicyclo[3.2.1]octan-3-yl)-1,6-naphthyridine-5,7-diamine] | – | – | statistically significant decrease | – | – | –
